# Test results: patent US8959984B2, “Proteome-wide quantification of small molecule binding to cellular target proteins” (priority 2007, dated 2015)
# Legend:
# Assay in all cases: binding to AX14596 beads (HeLa lysate, SILAC MS)
# [1] = target: CaMK2g (CAMK2G) (Homo sapiens, UniProt Q13555)
# Method: (§1) Differentially SILAC-encoded cell lysates were either incubated with the inhibitor beads displaying immobilized AX14596 or control resin devoid of ligand. In parallel, the supernatant from the first binding step was subjected to a second incubation with the AX14596 resin (FIG. 4). The resulting three elution fractions were combined, resolved by gel electrophoresis, proteolytically digested and the relative abundance of the retained proteins quantified. Proteins showing considerable binding to the control resin were identified as non-specific interactors and therefore not considered further. […] These target-specific ratios were similar in “label switch” experiments (FIGS. 6a and 6c). The binding equilibrium was determined in parallel control SILAC experiments as well as the excess of the immobilized compound over its cellular targets, the excess preferably being a molar excess (FIG. 7 and FIG. 8).
# (§2) Cysteine carbamidomethylation was set as a fixed modification and N-acetyl protein and oxidized methionine were allowed as variable modifications. Spectra that were determined to result from heavy labeled peptides in the pre-search detection of SILAC partners by MaxQuant were searched with the fixed modifications Lys^4, Lys^8, Arg^6 and Arg^10, whereas MS/MS spectra for which no SILAC state could be assigned before database searching were searched with Lys^4, Lys^8, Arg^6 and Arg^10 as variable modifications. The mass tolerance was set to 5 ppm for monoisotopic precursor ions and to 0.5 Da for MS/MS peaks. The minimum peptide length was set to 6 amino acids and up to three missed cleavages and three isotopically labeled amino acids were permitted per peptide. The accepted false discovery rate (FDR) was 1% for the proteins and peptides. The cut-off for the posterior error probability (PEP) of peptides was set to 10%. Peptide PEPs were determined by generating Mascot score and peptide-length-dependent histograms for both the forward and the reverse hits and then deriving the probability of a false identification for a given top-scoring peptide using Bayes' theorem. The PEPs of peptides belonging to the same proteins were then multiplied. Each peptide sequence was considered only once with the lowest PEP determined in case of multiple sequencing of the same isotopic pattern or of peptide species with different SILAC, charge or modification states. Proteins were then sorted according to their products of their peptide PEPs and included until a FDR of 1% was reached according to the fraction of reverse proteins contained in the protein list. In addition to the FDR threshold applied for protein identification, proteins were only included when they were identified with at least two peptides (of which one was required to be unique for the protein) and quantified if at least on quantifiable SILAC pair was associated with them. Outliers were not removed as protein ratios were calculated as the median instead of the average of all peptide ratios. For peptides shared among different identified proteins, SILAC ratios were only considered for the ratio of the protein identified with the highest number of unique peptides. Protein ratios for the different in vitro association experiments were corrected for the initial SILAC pooling ratio, which was determined from the median of protein ratios in pooled SILAC-encoded cell extracts.
# [2] = target: T1, EphB2 (Homo sapiens, UniProt P29323)
# T1 sequence (P29323 19-1055): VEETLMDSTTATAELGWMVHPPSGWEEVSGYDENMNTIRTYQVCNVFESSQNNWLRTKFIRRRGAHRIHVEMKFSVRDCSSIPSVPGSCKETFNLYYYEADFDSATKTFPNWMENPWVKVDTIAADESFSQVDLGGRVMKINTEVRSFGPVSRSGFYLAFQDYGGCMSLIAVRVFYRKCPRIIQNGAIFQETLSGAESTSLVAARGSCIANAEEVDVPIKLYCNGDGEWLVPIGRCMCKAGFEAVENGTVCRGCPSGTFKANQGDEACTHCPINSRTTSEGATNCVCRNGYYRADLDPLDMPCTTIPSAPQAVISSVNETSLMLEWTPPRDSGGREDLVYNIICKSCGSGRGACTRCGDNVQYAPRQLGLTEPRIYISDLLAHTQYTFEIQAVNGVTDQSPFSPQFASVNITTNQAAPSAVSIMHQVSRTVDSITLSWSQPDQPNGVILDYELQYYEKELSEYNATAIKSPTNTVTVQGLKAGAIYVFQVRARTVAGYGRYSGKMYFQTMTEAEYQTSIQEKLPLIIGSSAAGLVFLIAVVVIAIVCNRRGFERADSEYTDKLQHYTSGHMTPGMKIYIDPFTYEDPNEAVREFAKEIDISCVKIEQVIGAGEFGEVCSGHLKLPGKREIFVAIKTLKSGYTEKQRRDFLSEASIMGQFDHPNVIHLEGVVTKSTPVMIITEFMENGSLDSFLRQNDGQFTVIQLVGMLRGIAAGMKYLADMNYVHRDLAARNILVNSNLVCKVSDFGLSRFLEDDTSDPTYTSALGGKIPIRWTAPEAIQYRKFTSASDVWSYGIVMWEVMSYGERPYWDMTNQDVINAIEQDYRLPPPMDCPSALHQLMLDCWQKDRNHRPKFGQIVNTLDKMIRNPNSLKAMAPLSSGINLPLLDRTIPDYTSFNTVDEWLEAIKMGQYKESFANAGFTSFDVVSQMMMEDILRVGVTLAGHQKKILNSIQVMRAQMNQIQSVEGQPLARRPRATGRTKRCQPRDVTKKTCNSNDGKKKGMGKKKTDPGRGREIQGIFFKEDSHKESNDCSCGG
# Method: as §1, §2
# [3] = target: MET (Homo sapiens, UniProt P08581)
# MET, sequence (P08581 25-1390): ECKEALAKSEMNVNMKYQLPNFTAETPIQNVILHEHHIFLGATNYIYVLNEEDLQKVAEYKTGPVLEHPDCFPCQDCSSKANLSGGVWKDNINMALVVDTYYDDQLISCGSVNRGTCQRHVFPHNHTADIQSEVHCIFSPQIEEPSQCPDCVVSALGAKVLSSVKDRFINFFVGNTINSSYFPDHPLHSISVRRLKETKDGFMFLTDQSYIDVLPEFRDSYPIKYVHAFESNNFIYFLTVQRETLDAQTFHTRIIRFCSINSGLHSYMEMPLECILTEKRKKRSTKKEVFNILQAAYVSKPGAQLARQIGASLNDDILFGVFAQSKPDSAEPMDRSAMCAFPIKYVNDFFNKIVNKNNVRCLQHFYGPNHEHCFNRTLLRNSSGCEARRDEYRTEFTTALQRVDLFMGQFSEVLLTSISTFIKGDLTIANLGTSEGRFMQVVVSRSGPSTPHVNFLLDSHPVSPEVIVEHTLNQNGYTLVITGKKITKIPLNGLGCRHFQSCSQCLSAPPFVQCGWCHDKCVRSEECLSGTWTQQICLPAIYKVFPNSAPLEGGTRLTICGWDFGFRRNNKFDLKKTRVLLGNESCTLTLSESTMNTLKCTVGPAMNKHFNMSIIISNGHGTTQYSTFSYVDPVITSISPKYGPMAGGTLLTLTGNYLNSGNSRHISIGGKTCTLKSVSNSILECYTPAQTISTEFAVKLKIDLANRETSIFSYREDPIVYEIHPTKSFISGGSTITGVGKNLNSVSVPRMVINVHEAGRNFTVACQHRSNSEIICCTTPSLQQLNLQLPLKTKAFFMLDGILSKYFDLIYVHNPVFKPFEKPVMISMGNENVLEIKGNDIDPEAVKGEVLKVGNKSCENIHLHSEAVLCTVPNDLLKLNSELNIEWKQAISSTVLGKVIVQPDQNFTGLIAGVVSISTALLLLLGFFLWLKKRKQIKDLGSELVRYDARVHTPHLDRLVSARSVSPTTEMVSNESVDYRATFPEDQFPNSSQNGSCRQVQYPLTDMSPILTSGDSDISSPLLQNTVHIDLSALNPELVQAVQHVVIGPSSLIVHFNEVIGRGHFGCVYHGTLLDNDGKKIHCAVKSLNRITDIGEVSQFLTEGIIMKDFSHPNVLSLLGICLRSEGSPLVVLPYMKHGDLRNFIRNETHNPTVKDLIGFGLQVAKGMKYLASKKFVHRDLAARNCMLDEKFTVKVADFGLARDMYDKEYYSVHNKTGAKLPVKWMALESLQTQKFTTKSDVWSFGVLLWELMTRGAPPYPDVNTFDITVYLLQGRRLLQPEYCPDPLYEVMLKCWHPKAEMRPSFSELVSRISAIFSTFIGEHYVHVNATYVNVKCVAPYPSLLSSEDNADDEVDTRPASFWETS
# Method: as §1, §2
# [4] = target: T2, YES (YES1) (Homo sapiens, UniProt P07947)
# T2 construct: endogenous in cells; host or cells: HeLa S3
# T2 sequence (P07947 whole entry): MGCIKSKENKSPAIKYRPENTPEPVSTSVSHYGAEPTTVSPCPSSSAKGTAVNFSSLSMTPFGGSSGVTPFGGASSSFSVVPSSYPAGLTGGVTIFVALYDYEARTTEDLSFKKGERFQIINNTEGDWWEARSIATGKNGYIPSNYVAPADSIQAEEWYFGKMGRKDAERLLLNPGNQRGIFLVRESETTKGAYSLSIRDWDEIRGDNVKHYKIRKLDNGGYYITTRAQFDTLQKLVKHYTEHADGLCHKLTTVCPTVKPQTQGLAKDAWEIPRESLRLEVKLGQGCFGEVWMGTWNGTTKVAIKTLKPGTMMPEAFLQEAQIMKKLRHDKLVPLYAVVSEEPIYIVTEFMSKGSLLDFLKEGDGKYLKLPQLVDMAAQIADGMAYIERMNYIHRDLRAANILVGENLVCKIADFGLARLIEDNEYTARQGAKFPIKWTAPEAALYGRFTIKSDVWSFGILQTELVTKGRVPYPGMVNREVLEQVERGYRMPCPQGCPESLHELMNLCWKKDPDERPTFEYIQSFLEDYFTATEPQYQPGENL
# Method: as §1, §2
# CaMK2g (CAMK2G), sequence (Q13555 whole entry): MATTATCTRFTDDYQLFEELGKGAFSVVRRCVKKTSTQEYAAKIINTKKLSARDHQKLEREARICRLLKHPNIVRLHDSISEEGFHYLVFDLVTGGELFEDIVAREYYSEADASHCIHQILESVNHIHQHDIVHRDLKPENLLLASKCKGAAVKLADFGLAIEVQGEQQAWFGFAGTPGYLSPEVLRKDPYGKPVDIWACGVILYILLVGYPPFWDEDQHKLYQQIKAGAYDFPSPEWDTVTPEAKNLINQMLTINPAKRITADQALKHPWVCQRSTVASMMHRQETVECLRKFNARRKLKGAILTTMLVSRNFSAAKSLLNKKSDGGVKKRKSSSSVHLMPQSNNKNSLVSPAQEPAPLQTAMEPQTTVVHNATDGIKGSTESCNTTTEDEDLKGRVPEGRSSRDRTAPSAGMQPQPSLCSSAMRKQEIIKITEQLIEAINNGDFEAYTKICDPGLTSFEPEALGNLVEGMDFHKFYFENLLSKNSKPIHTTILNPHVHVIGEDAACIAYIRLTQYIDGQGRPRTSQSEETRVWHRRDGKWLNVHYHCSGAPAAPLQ
compound,measurement,setting,value
COc1cc2ncnc(Nc3ccc(F)c(Cl)c3)c2cc1OCCCN [AX14596],Ki,[1],93.4 µM
same,r (3 mg/1 mg lysate),[1],2.45
same,r (5 h/2.5 h inc. time),[1],1.17
same,rAVERAGE (2. inc/1. inc),[1],0.48
same,rAVERAGE (control/1. inc),[1],0.04
same,Ki,[2],213 µM
same,r (3 mg/1 mg lysate),[2],3.41
same,r (5 h/2.5 h inc. time),[2],1.06
same,rAVERAGE (2. inc/1. inc),[2],0.68
same,rAVERAGE (control/1. inc),[2],0.04
same,Ki,[3],267 µM
same,r (3 mg/1 mg lysate),[3],2.30
same,r (5 h/2.5 h inc. time),[3],1.12
same,rAVERAGE (2. inc/1. inc),[3],0.73
same,rAVERAGE (control/1. inc),[3],0.06
same,% BOUND,[3]; bound to AX14596 beads,27%
same,Ki,[4],658 µM
same,r (3 mg/1 mg lysate),[4],2.03
same,r (5 h/2.5 h inc. time),[4],0.98
same,rAVERAGE (2. inc/1. inc),[4],0.87
same,rAVERAGE (control/1. inc),[4],0.05
same,% BOUND,[4]; bound to AX14596 beads,13%
